[ ]: non-standard residue; d: D form. The star is where a group is joined. AMC = Cc1cc(=O)oc2cc(N*)ccc12; Nle = CCCC[C@H](N)C(=O)O; Cbz = O=C(OCc1ccccc1)*
What was measured:
Format in all cases: biochemical
[1] = target: T1, cathepsin B in homogenates of human neuroblastoma SHSY-5Y and SK-N-MC cells (Homo sapiens, UniProt P07858); assay: Cathepsin B (CA-074-sensitive) activity in human neuroblastoma cell homogenates; settings: for cathepsin B activity detected in cell homogenate: pH 4.6; for monitoring of cathepsin B (CA-074-sensitive) activity in cell homogenate: pH 4.6, 5.5, 7.2
T1 construct: homogenates of human neuroblastoma cell lines, SHSY-5Y and SK-N-MC, and mouse microglia cell line, BV2; endogenous in cells; host or cells: SH-SY5Y and SK-N-MC human neuroblastoma cell homogenates
Procedure: (§1) Cathepsin B activity in human neuroblastoma and mouse microglia. Characterization of Z-Nle-Lys-Arg-AMC substrate in proteolytic activity assays for specific cathepsin B activity of cell homogenates (prepared in 0.32 M sucrose) was conducted at 40 mM citrate phosphate pH 4.6, 5.5, and 7.2, 5 mM DTT, 1 mM EDTA, 100 mM NaCl, 1.2% DMSO, and homogenates of human neuroblastoma cell lines, SHSY-5Y and SK-N-MC, and mouse microglia cell line, BV2. A concentration of 6 μM Z-Nle-Lys-Arg-AMC, Z-Arg-Arg-AMC, and Z-Phe-Arg-AMC substrates were used in the proteolytic activity assays. Cell homogenates were diluted 1:10 prior to addition to assays. […] Assays were performed in 96-well plates at room temperature (25° C.) in a total volume of 100 μl with triplicates. Cell homogenates were incubated with CA-074 or inhibitor controls at RT for 30 minutes in the absence of substrate, followed by addition of substrate and incubation at 37° C. Fluorescence was quantified at 15, 30, and 60 minutes after substrate was added, by a Biotek Synergy HTX microplate reader with excitation at 360 nm, and emission at 460 nm, gain 50, top optics and read height at 1 mm. Prism GraphPad software was used to analyze data.

[2] = target: T2, cathepsin B in homogenates of mouse microglia BV2 cells (Mus musculus, UniProt P10605); assay: Cathepsin B (CA-074-sensitive) activity in mouse microglia cell homogenates; settings: for cathepsin B activity detected in cell homogenate: pH 4.6; for monitoring of cathepsin B (CA-074-sensitive) activity in cell homogenate: pH 4.6, 5.5, 7.2
T2 construct: homogenates of human neuroblastoma cell lines, SHSY-5Y and SK-N-MC, and mouse microglia cell line, BV2; endogenous in cells; host or cells: BV2 mouse microglia cells (homogenate; cytosol fraction in the low nutrient stress assay)
T2 sequence (P10605 80-333): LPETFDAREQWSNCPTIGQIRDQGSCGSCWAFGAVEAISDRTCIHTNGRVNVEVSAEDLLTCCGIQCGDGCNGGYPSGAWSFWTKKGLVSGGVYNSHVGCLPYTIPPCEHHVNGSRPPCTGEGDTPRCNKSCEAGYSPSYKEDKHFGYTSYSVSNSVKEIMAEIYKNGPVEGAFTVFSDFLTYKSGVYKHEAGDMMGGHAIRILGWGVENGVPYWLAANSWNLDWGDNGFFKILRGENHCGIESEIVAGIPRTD
Procedure: as §1

mouse cathepsin B = target: T3, mouse cathepsin B (Mus musculus, UniProt P10605); assay: Mouse cathepsin B specific activity with AMC substrates; settings: pH 4.6, 5.5 and 7.2; 40 μM substrate
T3 construct: purchased R & D Systems 965-CY-010
T3 sequence (P10605 80-333 limits assumed): as the sequence (P10605 80-333) above
Procedure: FIGS. 11a-11b. […] (FIG. 11a) pH-dependence of mouse cathepsin B activity with Z-Nle-Lys-Arg-AMC compared to Z-Arg-Arg-AMC and Z-Phe-Arg-AMC substrates. Cathepsin B specific activity with the three different substrates (40 μM) were assessed at pH 4.6, 5.5, and 7.2. Data points are shown as the mean+SD (n=3).

cathepsin K = target: T4, cathepsin K (Homo sapiens, UniProt P43235); assay: Substrate selectivity: cleavage of AMC substrates by cathepsin K
T4 construct: active cathepsin K (Abcam, #ab157067); purchased Abcam ab157067
T4 sequence (P43235 115-329): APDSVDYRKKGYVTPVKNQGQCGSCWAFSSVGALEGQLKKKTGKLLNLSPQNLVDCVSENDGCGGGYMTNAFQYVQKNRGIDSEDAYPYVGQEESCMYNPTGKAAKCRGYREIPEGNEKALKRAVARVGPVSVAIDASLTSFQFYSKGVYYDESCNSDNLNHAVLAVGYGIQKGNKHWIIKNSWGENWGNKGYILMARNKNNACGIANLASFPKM

cathepsin L = target: T5, cathepsin L (Homo sapiens, UniProt P07711); assay: Substrate selectivity: cleavage of AMC substrates by cathepsin L
T5 construct: active cathepsin L (R & D Systems, #952-CY-010); purchased R & D Systems 952-CY-010
T5 sequence (P07711 114-333): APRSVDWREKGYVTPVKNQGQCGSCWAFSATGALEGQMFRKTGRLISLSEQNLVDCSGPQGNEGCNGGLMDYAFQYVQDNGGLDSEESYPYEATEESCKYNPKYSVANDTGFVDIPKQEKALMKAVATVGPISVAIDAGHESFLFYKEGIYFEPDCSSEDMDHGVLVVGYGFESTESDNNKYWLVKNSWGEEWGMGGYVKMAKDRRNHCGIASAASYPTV
Procedure: [Worded in the source for another target; used here, by the source, with some conditions changed.] (§2) Cathepsin B activity with Z-Arg-Arg-AMC and Z-Phe-Arg-AMC substrates at pH 4.6 and 7.2. Cathepsin B (0.04 ng/μL) activity was assessed with Z-Arg-Arg-AMC and Z-Phe-Arg-AMC substrates (40 μM final concentration) (Table 1) in 40 mM citrate phosphate buffer pH 4.6 or Tris-HCl pH 7.2 in 1 mM EDTA, 100 mM NaCl, and 5 mM DTT with incubation at room temperature (25° C.) in triplicate and AMC fluorescence readings per second (RFU/s) (excitation 360 nm, emission 460 nm) were recorded over a period of 30 min by BioTek Synergy HTX plate reader (Software Version 3.08.01). Enzyme initial velocity was calculated using the highest slope recorded for 10 consecutive fluorescent readings within the initial 30 min. The mean and standard deviation (SD) were determined from triplicates. RFU/s were converted to pmol/min/μg (specific activity) using AMC standard curves. All data were plotted, calculated, and analyzed using GraphPad Prism (Version 9.4.1).
(§3) For evaluation of cathepsin B and cysteine cathepsins for substrate selectivity each cathepsin was incubated with 4 μM substrates consisting of Z-Phe-Arg-AMC. Z-Arg-Arg-AMC, and Z-Nle-Lys-Arg-AMC, activity was monitored in 40 mM citrate phosphate (pH 4.6, pH 5.5 and pH 7.2), 1 mM EDTA, 100 mM NaCl, and 5 mM DTT for cathepsin B (0.04 ng/μL), cathepsin K (0.03 ng/μL), cathepsin L (0.03 ng/μL), cathepsin S (0.14 ng/μL), cathepsin V (0.04 ng/μL), and cathepsin X (0.20 ng ng/μL). Since cathepsin X cannot cleave any of the AMC substrates, MCARPPGFSAFK(Dnp)-OH (R & D Systems #ES005) was used to verify that cathepsin X was active.

human cathepsin B [3] = target: T6, human cathepsin B (Homo sapiens, UniProt P07858); assay: Cathepsin B activity with fluorogenic Z-peptide-AMC substrates (specific activity, pH profile); settings: for cleavage by cathepsin B: pH 4.6 and 7.2, 40 μM substrate ('Table 1' comparison)
T6 construct: purchased R & D Systems 953-CY-010
Procedure: as §2
Analysis of pH-dependent cathepsin B activity with fluorogenic substrates designed from MSPMS data. For comparison of cathepsin B activity at pH 4.6, pH 5.5, and pH 7.2 with multiple fluorogenic substrates, cathepsin B (0.04 ng/μL) was incubated with 40 μM substrates consisting of Z-Lys-Arg-AMC. Z-Phe-Arg-AMC. Z-Arg-Arg-AMC. Z-Gly-Lys-Arg-AMC, Z-Val-Lys-Arg-AMC, Z-Tyr-Lys-Arg-AMC. Z-Phe-Lys-Arg-AMC, Z-Trp-Lys-Arg-AMC, Z-Leu-Lys-Arg-AMC, Z-Ala-Lys-Arg-AMC, Z-Nle-Arg-Arg-AMC, and Z-Nle-Lys-Arg-AMC. AMC product formation (RFU/s) was monitored in 40 mM citrate phosphate, pH 4.6 and pH 7.2, 1 mM EDTA, 100 mM NaCl, and 5 mM DTT was determined from the average of RFU/s triplicates at each pH condition.
For analysis of pH-dependent activity cathepsin B (0.04 ng/μL), proteolytic activity was monitored over the pH range of pH 2.2-9.0 in 40 mM citrate phosphate (pH 2.2 to pH 6.6) and 40 mM Tris-HCl (pH 7.0 to 9.0), 1 mM EDTA, 100 mM NaCl, and 5 mM DTT, with preincubation in each pH buffer for 10 min prior to initiating the assay by addition of Z-Nle-Lys-Arg-AMC, Z-Arg-Arg-AMC, or Z-Phe-Arg-AMC to a final concentration of 40 μM to generate the pH curve data.

cathepsin V = target: T7, cathepsin V (Homo sapiens, UniProt O60911); assay: Substrate selectivity: cleavage of AMC substrates by cathepsin V
T7 construct: purchased R & D Systems 1080-CY-010
T7 sequence (O60911 114-334): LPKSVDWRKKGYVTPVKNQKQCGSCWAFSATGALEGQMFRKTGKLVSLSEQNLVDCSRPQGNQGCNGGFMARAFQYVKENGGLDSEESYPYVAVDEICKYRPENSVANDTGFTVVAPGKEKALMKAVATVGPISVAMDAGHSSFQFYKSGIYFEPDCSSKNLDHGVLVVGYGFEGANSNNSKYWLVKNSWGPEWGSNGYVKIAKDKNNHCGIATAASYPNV
Procedure: as §2
as §3, with “For evaluation of cathepsin B and cysteine cathepsins for substrate selectivity each cathepsin was incubated with 4 μM substrates consisting of Z-Phe-Arg-AMC.” left out

cathepsin S = target: T8, cathepsin S (Homo sapiens, UniProt P25774); assay: Substrate selectivity: cleavage of AMC substrates by cathepsin S
T8 construct: purchased R & D Systems 1183-CY-010
T8 sequence (P25774 115-331): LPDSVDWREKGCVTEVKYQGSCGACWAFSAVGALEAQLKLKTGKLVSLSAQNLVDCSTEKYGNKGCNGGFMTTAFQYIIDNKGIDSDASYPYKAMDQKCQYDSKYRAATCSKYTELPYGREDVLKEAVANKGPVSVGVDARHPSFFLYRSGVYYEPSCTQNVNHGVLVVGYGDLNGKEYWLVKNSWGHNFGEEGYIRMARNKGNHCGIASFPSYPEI
Procedure: as §2
as §3, with “For evaluation of cathepsin B and cysteine cathepsins for substrate selectivity each cathepsin was incubated with 4 μM substrates consisting of Z-Phe-Arg-AMC.” left out

human cathepsin B [4] = target: T6, human cathepsin B; assay: Cathepsin B activity with fluorogenic Z-peptide-AMC substrates (specific activity, pH profile); settings: pH 4.6 and pH 7.2; substrates at 4 μM (FIG. 3)
[5] = CA-074 1 μM, 30 min pre-incubation
[6] = pH 4.6 and 7.2, 40 μM substrate ('Table 1' comparison)
[7] = pH 4.6, 5.5 and 7.2 (FIGS. 5a-5c)

## CCCNC(=O)[C@H]1O[C@@H]1C(=O)N[C@H](C(=O)N1CCC[C@H]1C(=O)O)[C@@H](C)CC [CA-074]
[1]; [5]
  effect on cathepsin B activity in cell homogenate: inhibition
[2]; [5]
  effect on cathepsin B activity in cell homogenate: inhibition

## Cbz-Arg-Arg-{AMC}
Mouse cathepsin B
  mouse cathepsin B specific activity: low
Cathepsin K; [6]
  cleavage by cathepsin K: cleaved by cathepsin B and other cysteine cathepsins L, K, S, and V
Cathepsin L; [7]
  cleavage by cathepsin L: cleaved by cathepsins L and V
Cathepsin L; [6]
  cleavage by cathepsin L: cleaved by cathepsin B and other cysteine cathepsins L, K, S, and V
[1]
  cathepsin B activity detected in cell homogenate: none or little activity
  monitoring of cathepsin B (CA-074-sensitive) activity in cell homogenate: only low cathepsin B activity
Human cathepsin B [3]; pH 4.6, 40 μM substrate
  cleavage by cathepsin B at acidic pH: poor cleavage activity
Human cathepsin B [3]
  cleavage by cathepsin B: cleaved by cathepsin B and other cysteine cathepsins L, K, S, and V
Human cathepsin B [3]; pH 4.6 vs pH 7.2
  specific activity at acidic pH as fraction of specific activity at neutral pH: one-third
Human cathepsin B [3]; pH 7.2, 40 μM substrate
  cleavage by cathepsin B at neutral pH: readily cleaved
Cathepsin V; [7]
  cleavage by cathepsin V: cleaved by cathepsins L and V
Cathepsin V; [6]
  cleavage by cathepsin V: cleaved by cathepsin B and other cysteine cathepsins L, K, S, and V
Cathepsin S; [6]
  cleavage by cathepsin S: cleaved by cathepsin B and other cysteine cathepsins L, K, S, and V
[2]
  cathepsin B activity detected in cell homogenate: none or little activity
  monitoring of cathepsin B (CA-074-sensitive) activity in cell homogenate: only low cathepsin B activity

## Cbz-Leu-Lys-Arg-{AMC}
Human cathepsin B [4]
  cathepsin B specific activity compared among substrates: less activity than Z-Nle-Lys-Arg-AMC

## Cbz-Lys-Arg-{AMC}
Human cathepsin B [4]
  cathepsin B specific activity compared among substrates: lower activity than Z-Nle-Lys-Arg-AMC

## Cbz-Phe-Arg-{AMC}
Mouse cathepsin B
  mouse cathepsin B specific activity: moderate specific activity
Cathepsin K; [7]
  cleavage by cathepsin K: also cleaved by cathepsins K and V
Cathepsin K; [6]
  cleavage by cathepsin K: cleaved by cathepsin B and other cysteine cathepsins L, K, S, and V
Cathepsin L; [7]
  cleavage by cathepsin L: cleaved by cathepsin L with greater activity than that for cathepsin B
Cathepsin L; [6]
  cleavage by cathepsin L: cleaved by cathepsin B and other cysteine cathepsins L, K, S, and V
[1]
  monitoring of cathepsin B (CA-074-sensitive) activity in cell homogenate: detected cathepsin B as well as other cysteine cathepsin activity
Human cathepsin B [3]
  cleavage by cathepsin B: cleaved by cathepsin B and other cysteine cathepsins L, K, S, and V
Cathepsin V; [7]
  cleavage by cathepsin V: also cleaved by cathepsins K and V
Cathepsin V; [6]
  cleavage by cathepsin V: cleaved by cathepsin B and other cysteine cathepsins L, K, S, and V
Cathepsin S; [6]
  cleavage by cathepsin S: cleaved by cathepsin B and other cysteine cathepsins L, K, S, and V
[2]
  monitoring of cathepsin B (CA-074-sensitive) activity in cell homogenate: detected cathepsin B as well as other cysteine cathepsin activity

## Cbz-[Nle]-Arg-Arg-{AMC}
Human cathepsin B [3]; pH 4.6
  less activity compared to Z-Nle-Lys-Arg-AMC: about 30%
Human cathepsin B [3]; pH 7.2
  less activity compared to Z-Nle-Lys-Arg-AMC: ~50%

## Cbz-[Nle]-Lys-Arg-{AMC}
Mouse cathepsin B
  mouse cathepsin B specific activity: highest specific activity
Human cathepsin B [4]
  cathepsin B specific activity compared among substrates: higher than all other substrates at both pHs
Cathepsin K; [7]
  cleavage by cathepsin K: not cathepsins L. K. S, and V activities
Cathepsin L; [7]
  cleavage by cathepsin L: not cathepsins L. K. S, and V activities
[1]
  cathepsin B activity detected in cell homogenate: robust cathepsin B activity
  monitoring of cathepsin B (CA-074-sensitive) activity in cell homogenate: highly sensitive for monitoring cathepsin B activity
Human cathepsin B [3]; pH profile pH 2 to 9
  pH of maximal activity: 5.5-6.5 pH
Cathepsin V; [7]
  cleavage by cathepsin V: not cathepsins L. K. S, and V activities
Cathepsin S; [7]
  cleavage by cathepsin S: not cathepsins L. K. S, and V activities
[2]
  cathepsin B activity detected in cell homogenate: robust cathepsin B activity
  monitoring of cathepsin B (CA-074-sensitive) activity in cell homogenate: highly sensitive for monitoring cathepsin B activity

From US20260265298A1, “PEPTIDE SUBSTRATES AND INHIBITORS OF CATHEPSIN B” (The Regents of the University of California, priority 2023, published 2026)
